What follows are compounds tested against T1, IL-17A/A (Homo sapiens, UniProt Q16552) (assay: IL-17A/A HEK-Blue Cell Assay). Settings: HEK-Blue IL-17A reporter cell line, SEAP readout at A630, 20 hours incubation with IL-17A/A; top concentration 10 uM, 1 uM or 0.3 uM.
T1 construct: purchased Genscript Z03228
T1 sequence (Q16552 24-155): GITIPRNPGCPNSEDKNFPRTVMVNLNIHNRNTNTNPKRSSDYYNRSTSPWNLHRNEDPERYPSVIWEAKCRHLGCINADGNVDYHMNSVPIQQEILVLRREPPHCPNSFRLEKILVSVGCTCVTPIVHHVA
Assay type: cell-based

Row | Compound | IL-17A/A inhibition (pIC50)
1 | CCn1nccc1C(=O)N[C@H](C(=O)Nc1ccc([C@H](C)[C@@H](NC(=O)NC2CC2)C(=O)N2CCN(C)CC2)cc1F)[C@H]1CC[C@H](C)CC1 [Compound 404] | B (8>B≥7 as B)
2 | CCC(=O)N[C@@H](C(=O)N1CCN(C(C)(C)O)CC1)[C@@H](C)c1ccc(NC(=O)[C@@H](NC(=O)c2ccnn2CC)[C@H]2CC[C@H](C)CC2)c(F)c1 [Compound 424] | B (8>B≥7 as B)

Same assay, conditions: HEK-Blue IL-17A reporter cell line, SEAP readout at A630, 20 hours incubation with IL-17A/A; top concentration 10 uM, 1 uM or 0.3 uM; read-out: IL-17A/A inhibition (pIC50) (converted)

Row | Compound | IC50
3 | CCC(=O)N[C@@H](C(=O)N1CCN(C)CC1)[C@@H](C)c1ccc(NC(=O)C(NC(=O)C(F)(F)c2ccc(OC)nc2)[C@@H](C)C2CCCCC2)c(F)c1 (stereo partly shown) [Compound 394] | < 10 nM
4 | CCn1nccc1C(=O)N[C@H](C(=O)Nc1ccc([C@H](C)[C@@H](NC(=O)CC2CC2)C(=O)N2CCN(C)CC2)cc1F)[C@H]1CC[C@H](C)CC1 [Compound 396] | 10 to 100 nM
5 | CCC(=O)N[C@@H](C(=O)N1CCN(C)CC1)[C@@H](C)c1ccc(NC(=O)[C@@H](NC(=O)c2conc2C2(C)COC2)[C@H]2CC[C@H](C)CC2)c(F)c1 [Compound 397] | 10 to 100 nM
6 | CC(C)n1nccc1C(=O)N[C@H](C(=O)Nc1ccc([C@H](C)[C@@H](NC(=O)c2ccnn2C2CCC2)C(=O)N2CCN(C)CC2)cc1F)[C@H]1CC[C@H](C)CC1 [Compound 398] | < 10 nM
7 | CC(C)n1nccc1C(=O)N[C@H](C(=O)Nc1ccc([C@H](C)[C@@H](NC(=O)c2ccnn2C2CC2)C(=O)N2CCN(C)CC2)cc1F)[C@H]1CC[C@H](C)CC1 [Compound 399] | < 10 nM
8 | COc1cncc(C(F)(F)C(=O)N[C@H](C(=O)Nc2ccc([C@H](C)[C@@H](NC(=O)c3cnns3)C(=O)N3CCN(C)CC3)cc2F)[C@H]2CC[C@H](C)CC2)c1 [Compound 400] | < 10 nM
9 | CCn1nccc1C(=O)N[C@H](C(=O)Nc1ccc([C@H](C)[C@@H](NC(=O)NC2CC2)C(=O)N2CCN(C)CC2)cc1)C1CCCCC1 [Compound 402] | 10 to 100 nM
10 | CCC(=O)NC(C(=O)N1CCN(C)CC1)C(C)c1ccc(NC(=O)C(NC(=O)C(F)(F)c2cnc(OC)nc2)C2CCC(C)CC2)c(F)c1 (stereo not shown) [Compound 405] | 10 to 100 nM
11 | CCn1nccc1C(=O)N[C@H](C(=O)Nc1ccc([C@H](C)[C@@H](NC(=O)C2(F)CC2)C(=O)N2CCN(C)CC2)cc1F)[C@H]1CC[C@H](C)CC1 [Compound 406] | 10 to 100 nM
12 | CCn1cc(C(F)(F)C(=O)N[C@H](C(=O)Nc2ccc([C@H](C)[C@@H](NC(=O)c3cnns3)C(=O)N3CCN(C)CC3)cc2F)[C@H]2CC[C@H](C)CC2)cn1 [Compound 407] | < 10 nM
13 | CCc1nonc1C(=O)N[C@H](C(=O)Nc1ccc([C@H](C)[C@@H](NC(=O)c2cnns2)C(=O)N2CCN(C)CC2)cc1F)[C@H]1CC[C@H](C)CC1 [Compound 408] | < 10 nM
14 | CCc1ccoc1C(=O)N[C@H](C(=O)Nc1ccc([C@H](C)[C@@H](NC(=O)c2cnns2)C(=O)N2CCN(C)CC2)cc1F)[C@H]1CC[C@H](C)CC1 [Compound 409] | 10 to 100 nM
15 | CCn1ncnc1C(=O)N[C@H](C(=O)Nc1ccc([C@H](C)[C@@H](NC(=O)c2cnns2)C(=O)N2CCN(C)CC2)cc1F)[C@H]1CC[C@H](C)CC1 [Compound 410] | 10 to 100 nM
16 | CCc1nocc1C(=O)N[C@H](C(=O)Nc1ccc([C@H](C)[C@@H](NC(=O)c2cnns2)C(=O)N2CCN(C)CC2)cc1F)[C@H]1CC[C@H](C)CC1 [Compound 414] | < 10 nM
17 | CCn1nccc1C(=O)N[C@H](C(=O)Nc1ccc([C@H](C)[C@@H](NC(=O)c2ccnn2C2CCOCC2)C(=O)N2CCC(C)(O)CC2)cc1F)[C@H]1CC[C@H](C)CC1 [Compound 417] | < 10 nM
18 | CCC(=O)N[C@@H](C(=O)N1CCN(C)CC1)[C@@H](C)c1ccc(NC(=O)C(NC(=O)C(F)(F)c2cnc(OC)nc2)C2CCCCCC2)c(F)c1 (stereo partly shown) [Compound 418] | 10 to 100 nM
19 | CCC(=O)N[C@@H](C(=O)N1CCN(C)CC1)[C@@H](C)c1ccc(NC(=O)C(NC(=O)C(F)(F)C2CCCCC2)[C@H]2CC[C@H](C)CC2)c(F)c1 (stereo partly shown) [Compound 419] | 10 to 100 nM
20 | CCC(=O)N[C@@H](C(=O)N1CCN(C(C)(C)C)CC1)[C@@H](C)c1ccc(NC(=O)[C@@H](NC(=O)c2ccnn2CC)[C@H]2CC[C@H](C)CC2)c(F)c1 [Compound 420] | < 10 nM
21 | CCC(=O)N[C@@H](C(=O)N1CCC(CC(=O)OC(C)(C)C)CC1)[C@@H](C)c1ccc(NC(=O)[C@@H](NC(=O)c2ccnn2CC)[C@H]2CC[C@H](C)CC2)c(F)c1 [Compound 421] | 10 to 100 nM
22 | CCC(=O)N[C@@H](C(=O)N1CCC(CC(=O)O)CC1)[C@@H](C)c1ccc(NC(=O)[C@@H](NC(=O)c2ccnn2CC)[C@H]2CC[C@H](C)CC2)c(F)c1 [Compound 422] | 10 to 100 nM
23 | CCC(=O)N[C@@H](C(=O)N1CCN(CCO)CC1)[C@@H](C)c1ccc(NC(=O)[C@@H](NC(=O)c2ccnn2CC)[C@H]2CC[C@H](C)CC2)c(F)c1 [Compound 423] | 10 to 100 nM
24 | CCC(=O)N[C@@H](C(=O)N1C[C@@H](C)N[C@@H](C)C1)[C@@H](C)c1ccc(NC(=O)[C@@H](NC(=O)c2ccnn2CC)[C@H]2CC[C@H](C)CC2)c(F)c1 [Compound 425] | 10 to 100 nM

Row | Compound | IC50
25 | CCC(=O)N[C@@H](C(=O)N1CCN(CC)[C@H](C)C1)[C@@H](C)c1ccc(NC(=O)[C@@H](NC(=O)c2ccnn2CC)[C@H]2CC[C@H](C)CC2)c(F)c1 [Compound 426] | < 10 nM
26 | CCC(=O)N[C@@H](C(=O)N1CCN(CC)[C@@H](C)C1)[C@@H](C)c1ccc(NC(=O)[C@@H](NC(=O)c2ccnn2CC)[C@H]2CC[C@H](C)CC2)c(F)c1 [Compound 427] | < 10 nM
27 | CCn1nccc1C(=O)N[C@H](C(=O)Nc1ccc([C@H](C)[C@@H](NC(=O)c2cnns2)C(=O)N2CCN(CCO)CC2)cc1F)[C@H]1CC[C@H](C)CC1 [Compound 428] | 10 to 100 nM
28 | CCC(=O)N[C@@H](C(=O)N1CCN(C)C[C@@H]1C)[C@@H](C)c1ccc(NC(=O)[C@@H](NC(=O)c2ccnn2CC)[C@H]2CC[C@H](C)CC2)c(F)c1 [Compound 429] | < 10 nM
29 | CCC(=O)N[C@@H](C(=O)N1CCN(C)C[C@H]1C)[C@@H](C)c1ccc(NC(=O)[C@@H](NC(=O)c2ccnn2CC)[C@H]2CC[C@H](C)CC2)c(F)c1 [Compound 430] | < 10 nM
30 | CCC(=O)N[C@@H](C(=O)N1CCN(C)CC1(C)C)[C@@H](C)c1ccc(NC(=O)[C@@H](NC(=O)c2ccnn2CC)[C@H]2CC[C@H](C)CC2)c(F)c1 [Compound 431] | < 10 nM
31 | CCn1nccc1C(=O)N[C@H](C(=O)Nc1ccc([C@H](C)[C@@H](NC(=O)C(C)C2CC2)C(=O)N2CCN(C)C(C)(C)C2)cc1F)[C@H]1CC[C@H](C)CC1 (stereo partly shown) [Compound 432] | < 10 nM
32 | CCn1nccc1C(=O)N[C@H](C(=O)Nc1ccc([C@H](C)[C@@H](NC(=O)C(C)C2CC2)C(=O)N2CCN(C)[C@@H](C)C2)cc1F)[C@H]1CC[C@H](C)CC1 (stereo partly shown) [Compound 433] | < 10 nM
33 | CCn1nccc1C(=O)N[C@H](C(=O)Nc1ccc([C@H](C)[C@@H](NC(=O)C(C)C2CC2)C(=O)N2CCN(C)[C@H](C)C2)cc1F)[C@H]1CC[C@H](C)CC1 (stereo partly shown) [Compound 434] | < 10 nM
34 | CCC(=O)N[C@@H](C(=O)N1CCN(C)[C@@H](C)C1)[C@@H](C)c1ccc(NC(=O)[C@@H](NC(=O)c2ccnn2CC)[C@H]2CC[C@H](C)CC2)c(F)c1 [Compound 435] | < 10 nM
35 | CCC(=O)N[C@@H](C(=O)N1CCN(C)[C@H](C)C1)[C@@H](C)c1ccc(NC(=O)[C@@H](NC(=O)c2ccnn2CC)[C@H]2CC[C@H](C)CC2)c(F)c1 [Compound 436] | < 10 nM
36 | CCC(=O)N[C@@H](C(=O)N1CCC(C)(OC)CC1)[C@@H](C)c1ccc(NC(=O)[C@@H](NC(=O)c2ccnn2CC)[C@H]2CC[C@H](C)CC2)c(F)c1 [Compound 437] | < 10 nM
37 | CCn1nccc1C(=O)N[C@H](C(=O)Nc1ccc([C@H](C)[C@@H](NC(=O)c2cnns2)C(=O)N2CCNC3(CC3)C2)cc1F)[C@H]1CC[C@H](C)CC1 [Compound 438] | 10 to 100 nM
38 | CCn1nccc1C(=O)N[C@H](C(=O)Nc1ccc([C@H](C)[C@@H](NC(=O)c2cnns2)C(=O)N2CCN(C)C3(CC3)C2)cc1F)[C@H]1CC[C@H](C)CC1 [Compound 439] | 10 to 100 nM
39 | CCn1nccc1C(=O)N[C@H](C(=O)Nc1ccc([C@H](C)[C@@H](NC(=O)c2cnns2)C(=O)N2CCC(C)(O)CC2)cc1F)[C@H]1CC[C@H](C)CC1 [Compound 440] | < 10 nM
40 | CCn1nccc1C(=O)N[C@H](C(=O)Nc1ccc([C@H](C)[C@@H](NC(=O)c2cnns2)C(=O)N2CCN(Cc3ccccc3)CC2)cc1F)[C@H]1CC[C@H](C)CC1 [Compound 441] | < 10 nM
41 | CCn1nccc1C(=O)N[C@H](C(=O)Nc1ccc([C@H](C)[C@@H](NC(=O)c2conc2C2CCNCC2)C(=O)N2CCC(C)(O)CC2)cc1F)[C@H]1CC[C@H](C)CC1 [Compound 442] | 10 to 100 nM
42 | CCn1nccc1C(=O)N[C@H](C(=O)Nc1ccc([C@H](C)[C@@H](NC(=O)CC2CC2)C(=O)N2CCN(Cc3ccccc3)CC2)cc1F)[C@H]1CC[C@H](C)CC1 [Compound 443] | < 10 nM
43 | CCC(=O)N[C@@H](C(=O)N1CCNC2(CC2)C1)[C@@H](C)c1ccc(NC(=O)[C@@H](NC(=O)c2nonc2CC)[C@H]2CC[C@H](C)CC2)c(F)c1 [Compound 444] | 10 to 100 nM
44 | CCC(=O)N[C@@H](C(=O)N1CCN(CCO)CC1)[C@@H](C)c1ccc(NC(=O)[C@@H](NC(=O)c2nonc2CC)[C@H]2CC[C@H](C)CC2)c(F)c1 [Compound 445] | 10 to 100 nM
45 | CCC(=O)N[C@@H](C(=O)N1CC(C(C)(C)O)C1)[C@@H](C)c1ccc(NC(=O)[C@@H](NC(=O)c2nonc2CC)[C@H]2CC[C@H](C)CC2)c(F)c1 [Compound 446] | < 10 nM
46 | CCC(=O)N[C@@H](C(=O)N1C[C@@H](C)N[C@@H](C)C1)[C@@H](C)c1ccc(NC(=O)[C@@H](NC(=O)c2nonc2CC)[C@H]2CC[C@H](C)CC2)c(F)c1 [Compound 447] | 10 to 100 nM
